For one series, the target named is DAO (Sus scrofa, UniProt Q9TRC7). As to conditions: read-out: DAO IC50.
The nature of series [1]: in vivo. As to conditions: rat, po, 20 mg/kg.
Series [2] in a line: in vivo. As to conditions: female, mouse, po, 50 mg/kg.
The next series addresses MAO-B (Homo sapiens (Human), UniProt P27338). The experiment in a line: Monoamine oxidase B (MAO-B) selectivity assay (MAO-Glo). The class given is biochemical.
The target of another series is MAO-A (Homo sapiens (Human), UniProt P21397). Kind of series: Monoamine oxidase A (MAO-A) selectivity assay (MAO-Glo). The class given is biochemical.
Sequence of MAO-A (P21397 whole entry): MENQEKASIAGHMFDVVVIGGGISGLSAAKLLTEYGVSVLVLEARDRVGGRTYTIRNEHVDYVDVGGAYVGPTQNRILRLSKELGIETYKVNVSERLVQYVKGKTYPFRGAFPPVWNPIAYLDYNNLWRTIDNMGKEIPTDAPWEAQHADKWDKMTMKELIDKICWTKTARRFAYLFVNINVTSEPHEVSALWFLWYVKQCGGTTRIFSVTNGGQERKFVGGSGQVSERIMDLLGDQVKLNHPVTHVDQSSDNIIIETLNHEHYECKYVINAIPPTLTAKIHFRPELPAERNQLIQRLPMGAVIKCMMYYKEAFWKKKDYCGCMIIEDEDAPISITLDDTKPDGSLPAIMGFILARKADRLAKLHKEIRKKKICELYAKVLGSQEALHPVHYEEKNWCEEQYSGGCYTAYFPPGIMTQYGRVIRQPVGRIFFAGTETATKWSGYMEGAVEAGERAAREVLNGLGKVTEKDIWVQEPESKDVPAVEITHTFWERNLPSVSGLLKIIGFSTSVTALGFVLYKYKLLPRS
Series [3] has as its system TGF beta signalling (pSMAD2). Format: cell-based. As to conditions: leading to MATN2 reduction.
For series [4], the system named is MATN2 in MDA-MB-231 cells. Kind of series: MATN2 level in MDA-MB-231 cells (Western blotting). The class given is cell-based, human. The conditions noted are these: at a much higher concentration than 20 μM. As for the experimental part: Proteins were extracted from cultured cells using cell lysis buffer (Cell Signalling Technology) with the addition of protease and phosphatase inhibitor cocktails (Pierce). Protein concentrations were measured using Pierce 660 nm protein assay reagent and SpectaMax M5 plate reader. […] Separated proteins were transferred to nitrocellulose membranes using a Trans-Blot turbo transfer system (Bio-Rad). Following blocking with Odyssey blocking buffer (Li-COR), membranes were incubated with two primary antibodies of different species at 4° C. over night. Corresponding fluorescence secondary antibodies (Li-COR) of different excitation and emission wavelengths were used to visualize the protein of interest on an Odyssey CLx infrared imaging system (Li-COR). Quantification of band fluorescent intensity was achieved using Li-COR ImageStudio. The following primary antibodies were used, anti-LOX (Sigma), anti-human MATN2 (R&D), anti-EGFR and anti-pY1068EGFR (Cell Signalling Technology), and anti-GAPDH (Millipore).
LOX inhibitors show significant reduction of MATN2 in MDA-MB-231 cells treated at 20 μM overnight.
For orientation: In western blotting, separated proteins are transferred to a membrane and probed.

We go through eight compounds from patent publication US10995088B2, “Methylamine derivatives as lysysl oxidase inhibitors for the treatment of cancer” (The Institute of Cancer Research: Royal Cancer Hospital, priority 2016, dated 2021).

Counter-ions that a name gives are not always drawn.

Sequence of DAO (Q9TRC7 25-755 limits assumed): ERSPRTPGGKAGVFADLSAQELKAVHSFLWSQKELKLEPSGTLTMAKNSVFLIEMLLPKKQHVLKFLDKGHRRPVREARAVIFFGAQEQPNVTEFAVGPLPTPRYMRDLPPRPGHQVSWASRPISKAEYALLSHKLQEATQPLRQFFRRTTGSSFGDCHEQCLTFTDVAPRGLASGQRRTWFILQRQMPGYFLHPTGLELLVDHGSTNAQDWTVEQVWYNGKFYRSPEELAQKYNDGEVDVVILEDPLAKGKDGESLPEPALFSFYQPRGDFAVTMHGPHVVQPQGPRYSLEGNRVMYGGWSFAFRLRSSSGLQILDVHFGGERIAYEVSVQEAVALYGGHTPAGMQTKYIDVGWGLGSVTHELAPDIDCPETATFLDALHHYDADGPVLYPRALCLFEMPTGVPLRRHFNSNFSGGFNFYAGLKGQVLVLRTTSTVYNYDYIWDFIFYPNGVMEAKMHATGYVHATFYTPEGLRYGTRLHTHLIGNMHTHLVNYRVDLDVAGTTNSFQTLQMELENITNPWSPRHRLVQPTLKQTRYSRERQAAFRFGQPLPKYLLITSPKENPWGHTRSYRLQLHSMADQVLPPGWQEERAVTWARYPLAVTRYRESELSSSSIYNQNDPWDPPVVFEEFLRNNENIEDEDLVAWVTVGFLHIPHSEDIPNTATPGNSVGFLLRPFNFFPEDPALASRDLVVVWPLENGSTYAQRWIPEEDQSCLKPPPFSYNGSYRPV
Sequence of MAO-B (P27338 whole entry): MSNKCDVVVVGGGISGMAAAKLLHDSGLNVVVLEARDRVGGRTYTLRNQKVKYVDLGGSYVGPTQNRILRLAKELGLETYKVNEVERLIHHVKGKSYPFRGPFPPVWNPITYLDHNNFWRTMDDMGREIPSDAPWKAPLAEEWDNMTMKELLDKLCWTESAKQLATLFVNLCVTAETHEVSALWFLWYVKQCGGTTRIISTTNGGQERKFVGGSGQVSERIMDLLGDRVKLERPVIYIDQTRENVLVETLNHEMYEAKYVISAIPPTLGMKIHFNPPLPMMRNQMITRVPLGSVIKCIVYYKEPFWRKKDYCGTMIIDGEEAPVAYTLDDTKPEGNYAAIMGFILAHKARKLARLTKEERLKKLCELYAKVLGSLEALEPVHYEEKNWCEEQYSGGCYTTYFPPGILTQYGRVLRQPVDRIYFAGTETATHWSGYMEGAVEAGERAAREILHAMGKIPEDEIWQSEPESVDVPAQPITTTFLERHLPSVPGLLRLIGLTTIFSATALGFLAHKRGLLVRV

Take `CCc1cc(-c2ccc[n+]([O-])c2)cc(S(=O)(=O)c2cnc(CN)s2)c1` [Example 113, 3-(3-((2-(Aminomethyl)thiazol-5-yl)sulfonyl)-5-ethylphenyl)pyridine 1-oxide hydrochloride]: the IC50 (as a rule, the concentration that inhibits the measured activity by half) on DAO was over 100 µM.
For the compound `CN(C)C(=O)c1cc(-c2ccccc2)cc(S(=O)(=O)c2cnc(CN)s2)c1` [Example 125, 5-((2-(Aminomethyl)thiazol-5-yl)sulfonyl)-N,N-dimethyl-[1,1′-biphenyl]-3-carboxamide dihydrochloride], on DAO, the IC50 is over 100 µM.
As to `NCc1ncc(S(=O)(=O)c2cc(C(=O)O)cc(-c3ccccc3)c2)s1` [Example 126, 5-((2-(Aminomethyl)thiazol-5-yl)sulfonyl)-[1,1′-biphenyl]-3-carboxylic acid ditrifluoroacetate], the bioavailability (commonly dose-corrected exposure relative to a reference, in per cent) in the series “in vivo [1]” is 33%; in the series “in vivo [2]”, 67%.
With `Cc1ccc(-c2cc(S(=O)(=O)c3ccc(CN)s3)ccc2S(C)(=O)=O)cc1` [Example 82, (5-((4′-Methyl-6-(methylsulfonyl)-[1,1′-biphenyl]-3-yl)sulfonyl)thiophen-2-yl)methanamine hydrochloride], the IC50 at DAO was over 100 µM. Also, the bioavailability in “in vivo [2]” amounted to 74%.
Turning to `Cn1cc(-c2cc(F)cc(S(=O)(=O)c3cnc(CN)s3)c2)cn1` [Example 131, (5-((3-Fluoro-5-(1-methyl-1H-pyrazol-4-yl)phenyl)sulfonyl)thiazol-2-yl)methanamine trihydrochloride], on DAO, the IC50 is over 100 µM.
The same measure, in the same setting: the same measure for `Cn1cc(-c2cc(C(=O)O)cc(S(=O)(=O)c3cnc(CN)s3)c2)cn1` [Example 150, 3-((2-(Aminomethyl)thiazol-5-yl)sulfonyl)-5-(1-methyl-1H-pyrazol-4-yl)benzoic acid tihydrochloride]: over 100 µM; for `Cn1cc(-c2cccc(S(=O)(=O)c3cnc(CN)s3)c2)cn1` [Example 116, (5-((3-(1-Methyl-1H-pyrazol-4-yl)phenyl)sulfonyl)thiazol-2-yl)methanamine]: over 100 µM.
`N#CCCN` [BAPN, beta-aminopropionitrile]: the MAO-B inhibition entry at MAO-B is listed as “neither inhibits”. In addition, on MAO-A, the MAO-A inhibition result is “neither inhibits”. In addition, the “TGF beta signalling as indicated by pSMAD2” value in series [3] is reported as “increased”. The “reduction of MATN2” value in series [4] was “The same effect was seen”.
